Like-named read-outs stand apart in the source and are kept apart here.

Series [1] concerns myopia-induced juvenile mouse. The conditions noted are these: -30 D lens wearing group. As for the experimental part: It was examined whether or not a difference in the dosage form of 4-PBA affects the change in the lens. In accordance with the description given above in “Experimental Method”, 4-PBA was eye-dropped or intraperitoneally administered to a myopia-induced juvenile mouse, and the thickness of the lens was measured with SD-OCT in the same manner as in the measurement of the axial length.

Another series has as its system scleral collagen fibers. How it is done: After experimental intervention and eye parameter measurement, the eyeball was excised from the C57BL6J mouse. For transmission electron microscopic observation, the eyeball of the mouse was fixed in ice-cooled 2.5% glutaraldehyde in PBS for 1 hour, and then was cut along the sagittal plane. The cornea and the lens were excised, and the remaining tissue was further fixed in 2.5% glutaraldehyde/60 mM HEPES buffer (pH 7.4) overnight. The resultant specimen was washed with 60 mM HEPES buffer, and was then incubated in 1% tetroxide osmium/60 mM HEPES buffer at 4° C. for 2 hours, and the resultant was dehydrated through ethanol series, exchanged and embedded in Epon 812 (EM Japan, Tokyo, Japan). After the embedding, the resultant block was sliced into 70 nm, and stained with uranyl acetate and lead citrate. The resultant section was visualized with JEM-1400Plus (JEOL LTD., Tokyo, Japan).
The sclera is a tissue mainly containing collagen, and it is said that collagen fiber narrowing is involved in scleral thinning (see Non Patent Literature 5).

The conditions of series [2]: for 4-PBA Concentration, Choroid / 4-PBA Concentration, Plasma / 4-PBA Concentration, Retina (right) / 4-PBA Concentration, Sclera: 200 mg/kg intraperitoneally for 1 week. How it is done:
Pharmacokinetics in the eye tissue obtained by systemic administration of 4-PBA was confirmed. A specific test method was as follows.
4-PBA (200 mg/kg) was intraperitoneally administered for 1 week. One hour after the last administration, the eyeball was excised, and respective tissues were separated. Tissues from 16 mice (32eyeballs) were pooled to be used as 1 sample, and frozen with liquid nitrogen to be stored until measurement. Before the measurement by LC-MS/MS, a 9-fold weight of methanol/water (1:1, v/v) was added thereto for homogenization, and the resultant was centrifuged (10000×g, 4°° C., 5 minutes) to use a supernatant in analysis.
As a standard reagent, 4-phenylbutyric acid (Tokyo Chemical Industry Co., Ltd.) was used, and LC-MS/MS (LC-20AD system: Shimadzu Corporation, API4000: SCIEX, Tokyo, Japan), and HPLC column, Atlantis dc18 (5 μm, 2.1 mm ID×150 mm, Waters) were used. As a mobile phase, formic acid/water (1:10000, v/v) and acetonitrile were used, and during the analysis, the gradient of each mobile phase was maintained at 50%. A sample injection amount was set to 10 μL, a column temperature was set to 50° C., and a flow rate was set to 0.2 mL/min.
As mass spectrometry (MS) conditions, negative mode electrospray ionization (ESI) was employed, and ion was measured by multiple reaction monitoring (MRM).

The subject of series [3] is myopia-induced mouse. Description: Intraperitoneal injection of 4-PBA or TUDCA during myopia induction in mouse: axial elongation and refraction (Test Example 3). The conditions noted are these: 4-PBA 200 mg/kg/day intraperitoneal injection; 1st week and 3rd week of myopia induction (LIM). How it is done:
Specifically, a myopia-induced mouse is produced as follows. It is noted that myopia induction, and measurement of an axial length and refraction were performed by methods similar to those described in Non Patent Literatures 6 and 7. First, a male C57BL6J mouse was put in a standard transparent cage under a 12/12 h light/dark cycle in a temperature controlled clean room. The animal was allowed to free access to standard feed and autoclaved tap water. A 3-week-old mouse immediately after weaning was anesthetized with a mixed anesthetic of three anesthetics, that is, Domitor (Nippon Zenyaku Kogyo Co., Ltd.), Butorphanol (Meiji Seika Pharma Co., Ltd.), and Midazolam (Sandoz K. K.), and the skull was exposed with scissors. As illustrated in FIG. 1(b), a post was provided to stand on the skull, and fixed with dental cements (Super-Bond, Sun Medical Company, Ltd.). The post was provided with a screw thread so that an adjustor described below could be fixed thereon with a nut.
For inducing myopia, a minus lens having a power of −30 diopters (D) (Rainbow Contact, RAINBOW OPTICAL LABORATORY CO., LTD.) was worn on the right eye (myopia-induced eye), and a lens having a power of 0 D or only a frame was worn as a control on the left eye (control eye). […] The protector used here was attached to be integral with the frame portion, but the protector needs not be integral with the lens as long as the lens is not damaged by the behavior of the mouse.
Sodium phenylbutyrate (Cayman Chemical, MI, USA) and tauroursodeoxycholic acid (Sigma Aldrich, Tokyo, Japan) were dissolved in PBS. STF080310 (Selleck Biotech, Tokyo, Japan) or 4μ8C (Selleck Biotech) of an IRE1 inhibitor, GSK2656157 (Selleck Biotech) or GSK2606414 (Selleck Biotech) of a PERK inhibitor, and Nelfinavir Mesylate hydrate (Tokyo Chemical Industry Co., Ltd.) or Ceapin-A7 (Sigma Aldrich) of an ATF6 inhibitor were dissolved in DMSO, and the resultant was diluted to 1:1000 with PBS to be used in an eyedrop test.
A solution of sodium phenylbutyrate in PBS (4-PBA; 200 mg/kg) or tauroursodeoxycholic acid (TUDCA; 100 mg/kg) was intraperitoneally injected (i.p.) every day during the myopia induction period.

In series [4] the test system is myopia-induced mouse. The conditions noted are these: 2% 4-PBA eye-dropped every day after myopia induction. How it is done:
A solution of 2% sodium phenylbutyrate in PBS (4-PBA) was eye-dropped to both eyes of a myopia induced mouse once a day every day in the evening for 10 days after completing the myopia induction period corresponding to human adulthood. It is noted that administration schedule during the myopia induction period (LIM) and after completing the period is schematically illustrated in FIG. 11.
It was evaluated whether or not axial elongation is inhibited by eyedrop administration of 4-PBA after the myopia induction period (6 weeks old to 8 weeks old), namely, in a period, corresponding to adulthood in a human, when a posterior segment eye disorder is caused by scleral thinning (FIG. 11) differently from the eyedrop administration in the myopia induction period (3 weeks old to 6 weeks old) in a mouse model simulating myopia progression in childhood as described in Patent Literature 1.

As for sodium phenylbutyrate [4-PBA], the “lens thickening through myopia induction (LIM)” value in series [1] (4-PBA administered by eyedrop) is “lens thickening was not caused”. For the same substance, the “lens thickening through myopia induction (LIM)” value in series [1] (intraperitoneal administration of 4-PBA) is reported as “did not affect lens thickening”. In addition, in the series on scleral collagen fibers (4-PBA administered every day over the myopia-induced period, TEM, FIG. 10a), the “narrowing of collagen fibers in the sclera” value is listed as “the narrowing of collagen fibers in the sclera was inhibited”. In the series with scleral collagen fibers (eyedrop administration of 2% 4-PBA, FIG. 10b), the “scleral collagen fiber cross-sectional area profile” value is given as “the area profile was restored to the original one”. Also, in series [2] (15 min after administration), the “4-PBA Concentration, Choroid” value is 348 ng/g or ng/mL; the “4-PBA Concentration, Plasma” value was 394 ng/g or ng/mL; the “4-PBA Concentration, Retina (right)” value is 349 ng/g or ng/mL; the “4-PBA Concentration, Sclera” value is on record as 203 ng/g or ng/mL. In series [2] (30 min after administration), the “4-PBA Concentration, Choroid” value was 117 ng/g or ng/mL; the “4-PBA Concentration, Plasma” value is given as 186 ng/g or ng/mL; the “4-PBA Concentration, Retina (right)” value was 88.2 ng/g or ng/mL; the “4-PBA Concentration, Sclera” value is 107 ng/g or ng/mL. Further, in series [2] (60 min after administration), the “4-PBA Concentration, Choroid” value was 76.7 ng/g or ng/mL; the “4-PBA Concentration, Plasma” value is 76.2 ng/g or ng/mL; the “4-PBA Concentration, Retina (right)” value is listed as 27.9 ng/g or ng/mL; the “4-PBA Concentration, Sclera” value is listed as 44.9 ng/g or ng/mL. Further, the “detection of 4-PBA in the retina, the choroid and the sclera” value in series [2] (intraperitoneally administered) is “detected”. Besides, in the series with myopia-induced mouse [3], the axial elongation entry is “the axial elongation is inhibited” and the myopic refraction result was “the myopic refraction is inhibited”. Besides, the “myopic refraction after completing the myopia induction” value with myopia-induced mouse [4] was “tended to be inhibited”. For the same substance, the “adulthood axial elongation after completing the myopia induction” value with myopia-induced mouse [4] (1st and 3rd weeks) was “tended to inhibit”.

For the origin of these results see US20240398736A1, “Eyedrops for Treating Scleral Thinning and Screening Method for Therapeutic Agent of Scleral Thinning” (Tsubota Laboratory, Inc., priority 2020, published 2024).
